Test results from patent US7084165B2, “Monoamine reuptake inhibitors for treatment of CNS disorders” (Pfizer Inc, priority 1999, dated 2006).
Structures can show the parent of a compound that is named as a salt.

Work on `Cc1ccc(Oc2ccc(Cl)c(Cl)c2)c(CN(C)C)c1` (as salt: HCl) yielded a melting point of 196 to 198 °C.
Compound `CNCc1cc(F)ccc1Oc1ccc(Cl)cc1` (as salt: HCl) has a melting point of 208 to 209 °C.
With `CNC(C)c1ccccc1Oc1ccc(Cl)cc1` (stereo not shown) (as salt: HCl) the melting point was 147 to 149 °C.
Work on `CN(C)Cc1cc(C(F)(F)F)ccc1Oc1ccc(Cl)c(Cl)c1.O=C(O)/C=C\C(=O)O` yielded a melting point of 127 to 128 °C.
In the case of `Cl.Fc1ccc(Oc2ccc(Cl)c(Cl)c2)c(C2CCCN2)c1` (stereo not shown), the melting point is reported as 171 to 173 °C.
With `CNCc1cc(OC)ccc1Oc1ccc(Cl)c(Cl)c1` (as salt: HCl) (hydrate or solvate) the melting point was 140 to 141 °C.
`CNC(C)c1cc(F)ccc1Oc1ccc(Cl)c(Cl)c1` (stereo not shown) showed a melting point of 127 °C.
Work on `CNCc1ccc(Br)cc1Oc1ccc(Cl)c(Cl)c1` (as salt: HCl) yielded a melting point of 185 to 189 °C.
Work on `CN(C)Cc1cc(F)ccc1Oc1ccc(Cl)c(Cl)c1` (as salt: HCl) [Example 13, [2-(3,4-Dichlorophenoxy)-5-fluorobenzyl]-dimethylamine] yielded a melting point of 174 to 175 °C.
`NCc1cc(F)ccc1Oc1ccc(Cl)c(Cl)c1` (as salt: hydrochloride) [Example 57, 2-(3,4-DICHLOROPHENOXY)-5-FLUORO-BENZYLAMINE] gave a melting point of 190 to 194 °C.
For `CC(=O)Nc1ccc(Oc2ccc(Cl)c(Cl)c2)c(CN(C)C)c1.Cl`, the melting point was 199 to 202 °C.
`CNCc1cc(Br)ccc1Oc1ccc(Cl)c(Cl)c1` (as salt: HCl) gave a melting point of 206 to 210 °C.
For `CNCc1ccc(C(F)(F)F)cc1Oc1ccc(Cl)c(Cl)c1`, the melting point was 164 to 166 °C.
Compound `CNCc1cc(OC)c(OC)cc1Oc1ccc(Cl)c(Cl)c1` (as salt: HCl) has a melting point of 143 to 145 °C.
`CNCc1ccc(Cl)cc1Oc1ccc(Cl)c(Cl)c1` gave a melting point of 132 to 133 °C.
For `CC(c1ccccc1Oc1ccc(Cl)c(Cl)c1)N(C)C` (stereo not shown) (as salt: HCl), the melting point was 130 to 133 °C.
